Reference: patent US10954232B2, “Pyrazole derivative as ALK5 inhibitor and uses thereof” (HANMI PHARMACEUTICAL CO., LTD., priority 2016, dated 2021)

Target: T1, ALK5 kinase (Homo sapiens, UniProt P36897)
T1 construct: GST; purchased Thermo Fisher Scientific Solutions
T1 sequence (P36897 34-503): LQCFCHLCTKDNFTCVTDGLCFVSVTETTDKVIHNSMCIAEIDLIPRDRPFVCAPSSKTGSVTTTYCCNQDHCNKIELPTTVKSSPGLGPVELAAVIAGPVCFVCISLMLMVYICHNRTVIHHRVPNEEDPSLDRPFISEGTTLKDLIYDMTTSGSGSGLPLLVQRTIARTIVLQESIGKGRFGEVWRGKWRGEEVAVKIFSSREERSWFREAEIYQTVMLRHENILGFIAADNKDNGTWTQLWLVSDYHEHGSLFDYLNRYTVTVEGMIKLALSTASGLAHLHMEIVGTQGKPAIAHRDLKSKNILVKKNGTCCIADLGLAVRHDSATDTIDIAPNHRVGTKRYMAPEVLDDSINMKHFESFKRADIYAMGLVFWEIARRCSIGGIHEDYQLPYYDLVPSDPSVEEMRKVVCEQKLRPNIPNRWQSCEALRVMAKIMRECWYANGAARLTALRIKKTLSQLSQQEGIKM
Assay: Activity inhibition test on ALK5 enzyme (LanthaScreen Eu binding kinase assay)
Conditions: kinase tracer 178, 60 minutes at room temperature
Summary of the method: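 IC50 is the concentration giving 50% inhibition relative to control, taken from fluorescence after 60 min stirring at room temperature. Final mix held kinase 5 nM, Eu-GST binding antibody 2 nM and tracer 178 10 nM. Compounds were serially diluted from 1 μM to 0.0001 μM.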

IC50 [nM] | Compound
2 | Cc1cccc(-n2nc(C(=O)Nc3cnn(S(C)(=O)=O)c3)cc2-c2ccc3ncnn3c2)n1 [Example 162, 5-([1,2,4]triazolo[1,5-α]pyridin-6-yl)-1-(6-methylpyridin-2-yl)-N-(1-(methylsulfonyl)-1H-pyrazol-4-yl)-1H-pyrazole-3-carboxyamide]
< 10 | Cc1cccc(-n2nc(C(=O)Nc3ccc4c(c3)OCO4)cc2-c2ccc3ncsc3c2)n1 [Example 7, N-(benzo[d][1,3]dioxol-5-yl)-5-(benzo[d]thiazol-6-yl)-1-(6-methylpyridin-2-yl)-1-H-pyrazole-3-carboxyamide]
16 | Cc1cccc(-n2nc(C(=O)Nc3ccc(F)c(CS(N)(=O)=O)c3)cc2-c2ccc3ncsc3c2)n1 [Example 62, 5-(benzo[d]thiazol-6-yl)-N-(4-fluoro-3-(sulfamoylmethyl)phenyl)-1-(6-methylpyridin-2-yl)-1H-pyrazole-3-carboxyamide]
45 | Cc1cccc(-n2nc(C(=O)Nc3ccc(S(=O)(=O)C(F)(F)F)cc3)cc2-c2ccc3ncsc3c2)n1 [Example 57, 5-(benzo[d]thiazol-6-yl)-1-(6-methylpyridin-2-yl)-N-(4-((trifluoromethyl)sulfonyl)phenyl)-1H-pyrazole-3-carboxyamide]
~100 | Cc1cccc(-n2nc(C(=O)Nc3ccccc3Cl)cc2-c2ccc3ncnn3c2)n1 [Example 127, 5-([1,2,4]triazolo[1,5-α]pyridin-6-yl)-N-(2-chlorophenyl)-1-(6-methylpyridin-2-yl)-1H-pyrazole-3-carboxyamide]
14 | Cc1cccc(-n2nc(C(=O)Nc3ccc(N(C)CCN(C)C)cc3)cc2-c2ccc3ncnn3c2)n1 [Example 106, 5-([1,2,4]triazolo[1,5-α]pyridin-6-yl)-N-(4-((2-(dimethylamino)ethyl)(methyl)amino)phenyl)-1-(6-methylpyridin-2-yl)-1H-pyrazole-3-carboxyamide]
10 to 100 | Cc1cccc(-n2nc(C(=O)Nc3ccccc3Br)cc2-c2ccc3ncnn3c2)n1 [Example 130, 5-([1,2,4]triazolo[1,5-α]pyridin-6-yl)-N-(2-bromophenyl)-1-(6-methylpyridin-2-yl)-1H-pyrazole-3-carboxyamide]
10 to 100 | CNC(=O)c1ccccc1NC(=O)c1cc(-c2ccc3ncnn3c2)n(-c2cccc(C)n2)n1 [Example 112, 5-([1,2,4]triazolo[1,5-α]pyridin-6-yl)-N-(2-(methylcarbamoyl)phenyl)-1-(6-methylpyridin-2-yl)-1H-pyrazole-3-carboxyamide]
2.2 | Cc1cccc(-n2nc(C(=O)Nc3cccc(N)c3)cc2-c2ccc3ncsc3c2)n1 [Example 11, 5-(benzo[d]thiazol-6-yl)-N-(3-aminophenyl)-1-(6-methylpyridin-2-yl)-1H-pyrazole-3-carboxyamide]
10 to 100 | COc1ccc(NC(=O)c2cc(-c3ccc4ncnn4c3)n(-c3cccc(C)n3)n2)c(F)c1 [Example 97, 5-([1,2,4]triazolo[1,5-α]pyridin-6-yl)-N-(2-fluoro-4-methoxyphenyl)-1-(6-methylpyridin-2-yl)-1H-pyrazole-3-carboxyamide]
2.7 | CCCS(=O)(=O)c1ccc(NC(=O)c2cc(-c3ccc4ncnn4c3)n(-c3cccc(C)n3)n2)cc1 [Example 151, 5-([1,2,4]triazolo[1,5-α]pyridin-6-yl)-N-(4-(propylsulfonyl)phenyl)-1-(6-methylpyridin-2-yl)-1H-pyrazole-3-carboxyamide]
10 to 100 | Cc1cccc(-n2nc(C(=O)Nc3cc(F)cc(F)c3)cc2-c2ccc3ncnn3c2)n1 [Example 137, 5-([1,2,4]triazolo[1,5-α]pyridin-6-yl)-N-(3,5-difluorophenyl)-1-(6-methylpyridin-2-yl)-1H-pyrazole-3-carboxyamide]
10 to 100 | C=Cc1cccc(NC(=O)c2cc(-c3ccc4ncsc4c3)n(-c3cccc(C)n3)n2)c1 [Example 20, 5-(benzo[d]thiazol-6-yl)-1-(6-methylpyridin-2-yl)-N-(3-vinylphenyl)-1H-pyrazole-3-carboxyamide]
100 to 1000 | Cc1cccc(-n2nc(C(=O)Nc3ccccc3Cl)cc2-c2ccc3nccnc3c2)n1 [Example 190, N-(2-chlorophenyl)-1-(6-methylpyridin-2-yl)-5-(quinoxalin-6-yl)-1H-pyrazole-3-carboxyamide]
1.8 | Cc1cccc(-n2nc(C(=O)Nc3cccc([S+](C)[O-])c3)cc2-c2ccc3ncsc3c2)n1 (stereo not drawn) [Example 38, 5-(benzo[d]thiazol-6-yl)-1-(6-methylpyridin-2-yl)-N-(3-(methylsulfinyl)phenyl)-1H-pyrazole-3-carboxyamide]
